This is an account of results in patent US20060167057A1, “Compounds for the treatment of CNS and amyloid associated diseases” (priority 2004, published 2006).

One assay deals with T1, IAPP (Homo sapiens, UniProt P10997).
T1 construct: which is a 37 amino acid peptide, derived from a larger precursor peptide, called pro-IAPP
T1 sequence (P10997 34-70 limits assumed): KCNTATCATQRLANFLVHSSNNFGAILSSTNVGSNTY
Briefly: Electrospray MS assay for binding to IAPP. On the set-up: key to MS Results (IAPP binding), Water: 0 = None. The settings on record: 100 μM compound, 20 μM IAPP, pH 7.4, 20% ethanol in water. The text has this:
(§1) The ability of a therapeutic compound of the invention to inhibit an interaction between an amyloidogenic protein and a glycoprotein or proteoglycan constituent of a basement membrane can be assessed by an in vitro binding assay, such as that described in U.S. Pat. No. 5,164,295, the contents of which are hereby incorporated by reference. Alternatively, the ability of a compound to bind to an amyloidogenic protein or to inhibit the binding of a basement membrane constituent (e.g. HSPG) to an amyloidogenic protein (e.g. Aβ) can be measured using a mass spectrometry assay where soluble protein, e.g Aβ, IAPP, β2M is incubated with the compound. A compound which binds to, e.g Aβ, will induce a change in the mass spectrum of the protein. Exemplary protocols for a mass spectrometry assay employing Aβ and IAPP can be found in the Examples, the results of which are provided in Table 5. The protocol can readily be modified to adjust the sensitivity of the data, e.g., by adjusting the amount of protein and/or compound employed. Thus, e.g., binding might be detected for test compounds noted as not having detectable binding employing less sensitive test protocols.
The binding ability between the compounds synthesized in Example 4 and IAPP in an aqueous solution is tested. The binding ability is attributed semi-quantitatively from the intensities of peptide-compound complex peaks observed in the Electrospray Mass Spectrum.
In the MS assay for IAPP, samples are prepared as both aqueous solutions and as 20% ethanol in water solutions, including 100 μM of an exemplary compound as prepared in. Example 4 and 20 μM of solubilized IAPP. The stock solution contains 30 μM IAPP and the initial pH is 3.8. Generally, IAPP precipitates out of solution at concentrations higher than 50 μM and pH higher than ˜6 as soon as a test compound is mixed with the peptide. The pH value of each sample, therefore, is adjusted to 7.4 ([…]) by addition of 0.1% aqueous sodium hydroxide. The solutions aer then analyzed by electrospray ionization mass spectrometry using a Waters ZQ 4000 mass spectrometer. Samples are introduced by direct infusion at a flow-rate of 25 μL/min within 2 hr. after sample preparation. The source temperature is kept at 70° C. and the cone voltage is 20 V for all the analysis. Data are processed using Masslynx 3.5 software. IAPP (MW 3903.4) alone at 20 μM is analyzed at pH 7.32 as a control. Sodium clusters, which are typical of this system at +3 and +4 at m/z 1301.9 and 976.7 regions, may be observed. In Table 8, a blank box means that a value was not determined for that compound in that assay.
Take `N[C@@H](Cc1cccc(C[S+]([O-])c2nnnn2-c2ccccc2)c1)C(=O)O` (stereo partly shown) [drawing 518]: the “MS Results (IAPP binding), 20% Ethanol” value is recorded as “++ (++ = Moderate (30-50% of free peptide))”. For the compound `N[C@@H](Cc1cccc(C[S+]([O-])c2nnnn2-c2ccccc2)n1)C(=O)O` (stereo partly shown) [drawing 522], the “MS Results (IAPP binding), 20% Ethanol” value is “++ (++ = Moderate (30-50% of free peptide))”.

As to `N[C@@H](Cc1cccc(CSc2nnnn2-c2ccc(O)cc2)c1)C(=O)O` [drawing 523], the “MS Results (IAPP binding), 20% Ethanol” value is “+++ (+++ = Strong (50 and higher % of free peptide))”.

On to `N[C@@H](Cc1cccc(CSc2nnc(-c3ccncc3)o2)c1)C(=O)O` [drawing 524], for which the “MS Results (IAPP binding), 20% Ethanol” value is “+ (+ = Weak (15-30% of free peptide))”. The same measure, in the same setting: with `CN(C)CCn1nnnc1SCc1cccc(C[C@H](N)C(=O)O)c1` [drawing 525] the entry was “+ (+ = Weak (15-30% of free peptide))”.

The same assay, now with this note: 100 μM compound, 20 μM IAPP, pH 7.4, aqueous solution.
Turning to `COc1ccc(-n2nnnc2[S+]([O-])Cc2cccc(C[C@H](N)C(=O)O)c2)cc1` (stereo partly shown) [drawing 516], the “MS Results (IAPP binding), Water” value is reported as “+ (+ = Weak (15-30% of free peptide))”. On to `N[C@@H](Cc1cccc(CSc2nccc(O)n2)c1)C(=O)O` [drawing 517], for which the “MS Results (IAPP binding), Water” value amounted to 0. With `N[C@@H](Cc1cccc(C[S+]([O-])c2nnnn2-c2ccccc2)c1)C(=O)O` (stereo partly shown) [drawing 518], the “MS Results (IAPP binding), Water” value was “++ (++ = Moderate (30-50% of free peptide))”. The same measure, in the same setting: to `N[C@@H](Cc1cccc(CSc2nccc(C(F)(F)F)n2)n1)C(=O)O` [drawing 519] belongs “insoluble”; to `N[C@@H](Cc1cccc(CSc2nc3ccc(Cl)cc3s2)n1)C(=O)O` [drawing 520], “+++ (+++ = Strong (50 and higher % of free peptide))”. `N[C@@H](Cc1cccc(CS(=O)(=O)c2nc3ccccc3[nH]2)c1)C(=O)O` [drawing 521]: the “MS Results (IAPP binding), Water” value was “+ (+ = Weak (15-30% of free peptide))”.

Turning to `N[C@@H](Cc1cccc(C[S+]([O-])c2nnnn2-c2ccccc2)n1)C(=O)O` (stereo partly shown) [drawing 522], the “MS Results (IAPP binding), Water” value is listed as 0. Still for that read-out and setting: to `N[C@@H](Cc1cccc(CSc2nnnn2-c2ccc(O)cc2)c1)C(=O)O` [drawing 523] belongs “++ (++ = Moderate (30-50% of free peptide))”; to `N[C@@H](Cc1cccc(CSc2nnc(-c3ccncc3)o2)c1)C(=O)O` [drawing 524], “++ (++ = Moderate (30-50% of free peptide))”; to `CN(C)CCn1nnnc1SCc1cccc(C[C@H](N)C(=O)O)c1` [drawing 525], “+ (+ = Weak (15-30% of free peptide))”. On the same count and under the same terms, with `N[C@@H](Cc1cccc(C[S+]([O-])c2nnc(-c3ccccc3)[nH]2)c1)C(=O)O` (stereo partly shown) [drawing 526] the figure was 0; with `N[C@@H](Cc1cccc(CS(=O)(=O)c2ncc[nH]2)c1)C(=O)O` [drawing 527], 0; with `N[C@@H](Cc1cccc(CSc2nnc(-c3ccncc3)[nH]2)c1)C(=O)O` [drawing 528], “+ (+ = Weak (15-30% of free peptide))”.

In another assay the target is Aβ40 (Homo sapiens, UniProt P05067). Briefly: Electrospray MS assay for binding to Aβ40. On the set-up: key: +++ = Strong (70 and higher % of free peptide); ++ = Moderate (50-70% of free peptide); + = Weak (25-50% of free peptide); 0 = None. The settings on record: 100 μM compound, 20 μM Aβ40, pH 7.4.
Sequence of Aβ40 (P05067 672-711 limits assumed): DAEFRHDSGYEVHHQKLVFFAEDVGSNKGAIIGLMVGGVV
From the text: as §1
The binding ability between the compounds synthesized in Example 4 and Aβ40 in an aqueous solution is tested. The binding ability is attributed semi-quantitatively from the intensities of peptide-compound complex peaks observed in the Electrospray Mass Spectrum.
In the MS assay for Aβ40, samples are prepared as aqueous solutions adding 20% ethanol if necessary to solubilize in water. The stock solution of the peptide contains 50 μm Aβ40. In a typical experiment, 100 μM of an exemplary compound as prepared in Example 4 and 20 μM of solubilized Aβ40 are used. The ratio of the compound: peptide is 5:1. The pH value of each sample is adjusted to 7.4 (±0.2) by addition of 0.1% aqueous sodium hydroxide. The solutions are then analyzed by electrospray ionization mass spectrometry using a Waters ZQ 4000 mass spectrometer. Samples are introduced by direct infusion at a flow-rate of 25 μL/min within 2 hr. after sample preparation. The source temperature is kept at 70° C. and the cone voltage is 20 V for all the analysis. Data are processed using Masslynx 3.5 software. Aβ 1-40 (M.W.=4329) alone at 20 μM is analyzed at pH 7.32 as a control. Sodium clusters, which are typical of this system at +3 and +4 at m/z […] regions, may be observed. The MS assay gives data on the ability of compounds to bind to soluble Aβ, whereas the ThT, EM and CD assays give data on inhibition of fibrillogenesis.
In Table 7, a blank box means that a value was not determined for that compound in that assay.
`COc1ccc(-n2nnnc2SCc2cccc(C[C@H](N)C(=O)O)c2)cc1` [drawing 487]: the “MS Results (Aβ 1-40 binding)” value is given as “+ (+ = Weak (25-50% of free peptide))”. In the case of `N[C@@H](Cc1cccc(CSc2nnnn2-c2ccccc2)c1)C(=O)O` [drawing 488], the “MS Results (Aβ 1-40 binding)” value was “+ (+ = Weak (25-50% of free peptide))”. With `N[C@@H](Cc1cccc(CSc2nc3ccccc3[nH]2)c1)C(=O)O` [drawing 489], the “MS Results (Aβ 1-40 binding)” value is “+ (+ = Weak (25-50% of free peptide))”. As to `N[C@@H](Cc1cccc(CSc2nnc(-c3ccccc3)[nH]2)c1)C(=O)O` [drawing 490], the “MS Results (Aβ 1-40 binding)” value is “+ (+ = Weak (25-50% of free peptide))”. Take `N[C@@H](Cc1cccc(CSc2nc3ccccc3[nH]2)n1)C(=O)O` [drawing 491]: the “MS Results (Aβ 1-40 binding)” value is given as “+ (+ = Weak (25-50% of free peptide))”. `N[C@@H](Cc1cccc(CSc2ncnc3[nH]ncc23)n1)C(=O)O` [drawing 492]: the “MS Results (Aβ 1-40 binding)” value is “+ (+ = Weak (25-50% of free peptide))”. Regarding `N[C@@H](Cc1cccc(CS(=O)(=O)c2nc3ccccc3[nH]2)n1)C(=O)O` [drawing 493], the “MS Results (Aβ 1-40 binding)” value was “+ (+ = Weak (25-50% of free peptide))”. Same read-out and setting: with `COc1ccc(-n2nnnc2[S+]([O-])Cc2cccc(C[C@H](N)C(=O)O)c2)cc1` (stereo partly shown) [drawing 494] the figure was 0.

In the case of `N[C@@H](Cc1cccc(CSc2nccc(O)n2)c1)C(=O)O` [drawing 495], the “MS Results (Aβ 1-40 binding)” value amounted to 0. As for `N[C@@H](Cc1cccc(C[S+]([O-])c2nnnn2-c2ccccc2)c1)C(=O)O` (stereo partly shown) [drawing 496], the “MS Results (Aβ 1-40 binding)” value is recorded as “+ (+ = Weak (25-50% of free peptide))”.

Consider `N[C@@H](Cc1cccc(CSc2nccc(C(F)(F)F)n2)n1)C(=O)O` [drawing 497], for which the “MS Results (Aβ 1-40 binding)” value was “Compound insoluble”. For the compound `N[C@@H](Cc1cccc(CSc2nc3ccc(Cl)cc3s2)n1)C(=O)O` [drawing 498], the “MS Results (Aβ 1-40 binding)” value was “Compound Insoluble”.

In the case of `N[C@@H](Cc1cccc(CS(=O)(=O)c2nc3ccccc3[nH]2)c1)C(=O)O` [drawing 499], the “MS Results (Aβ 1-40 binding)” value is “++ (++ = Moderate (50-70% of free peptide))”. `N[C@@H](Cc1cccc(C[S+]([O-])c2nnnn2-c2ccccc2)n1)C(=O)O` (stereo partly shown) [drawing 500]: the “MS Results (Aβ 1-40 binding)” value turned out to be 0.

In the case of `N[C@@H](Cc1cccc(CSc2nnnn2-c2ccc(O)cc2)c1)C(=O)O` [drawing 501], the “MS Results (Aβ 1-40 binding)” value is on record as “+ (+ = Weak (25-50% of free peptide))”.

On to `N[C@@H](Cc1cccc(CSc2nnc(-c3ccncc3)o2)c1)C(=O)O` [drawing 502], for which the “MS Results (Aβ 1-40 binding)” value is listed as “+ (+ = Weak (25-50% of free peptide))”. Take `COc1ccc(-n2nnnc2[S+]([O-])Cc2cccc(C[C@H](N)C(=O)O)c2)cc1` (stereo partly shown) [drawing 503]: the “MS Results (Aβ 1-40 binding)” value is “+ (+ = Weak (25-50% of free peptide))”. On the same count and under the same terms, with `N[C@@H](Cc1cccc(C[S+]([O-])c2nnc(-c3ccccc3)[nH]2)c1)C(=O)O` (stereo partly shown) [drawing 504] the figure was 0. `N[C@@H](Cc1cccc(CS(=O)(=O)c2ncc[nH]2)c1)C(=O)O` [drawing 505]: the “MS Results (Aβ 1-40 binding)” value was “+ (+ = Weak (25-50% of free peptide))”.
